Experimental data taken from patent US12122816B2, “Long acting peptide tyrosine tyrosine (PYY) analogs and methods of use” (Intarcia Therapeutics, Inc., priority 2020, dated 2024).
Where two headings read alike, the source gives them in different places. Starred links: 1 amine or outer side, 2 acyl side, 3 side chain; linkers in the order of their positions; H or OH if unused. Residues, ends and D or L forms follow the SMILES beside them. Groups on a side chain read outwards from the residue. *: point of attachment. C20 diacid = O=C(O)CCCCCCCCCCCCCCCCCCC(=O)*; γGlu = O=C(O)[C@H](CCC(=O)[*:2])N[*:1]

Columns and labels:
[1] = In vitro metabolic stability in kidney brush border membranes (kBBM); type: in vitro ADME; details: 1 mcM peptide, 37° C.
Method: In vitro incubations in kidney brush border membrane (kBBM) preparations were used to characterize the ability of peptides to resist degradation by proteases and peptidases in the systemic circulation. kBBM were selected because they contain a high concentration of a diverse set of proteases and peptidases, many of which are present throughout the body.
Brush border membranes from rat and human kidney tissue were prepared via centrifugation and stored at −70° C. Thawed stocks of rat or human kBBM were diluted to the appropriate concentration in 25 mM HEPES buffer (pH 7.4) containing 1% casein and aliquoted into a 96-well plate. The kBBM solutions were pre-warmed for 10 minutes at 37° C. […] The final concentration of kBBM in each incubation was 50 mcg protein/mL. Reactions were maintained at 37° C. in a shaking water bath. […] Quenched samples were centrifuged at 2178×g for 10 min and then a portion of the supernatants were transferred to a clean 96-well plate and diluted 1:1 with water. Samples were analyzed by UPLC-MS/MS.

[2] = In vitro stability in subcutaneous (SC) tissue homogenates; type: in vitro ADME; details: subcutaneous tissue homogenate, pH 7.4; human SC tissue homogenate 1.0 mg protein/mL, 10 mcM peptide, 37° C.; read-out: (H)SC tissue stability t½ (converted)
Method: In vitro incubations in subcutaneous (SC) tissue homogenates were used to characterize the ability of peptides to resist pre-systemic degradation by proteases and peptidases after SC administration. […] Peptides with high SC bioavailability are stable in this assay, while peptides with low SC bioavailability are unstable in this assay.
Human SC tissue was homogenized in cold 25 mM HEPES buffer (pH 7.4, 10-fold volume based on sample weight), and then filtered through a double layer of cheesecloth. The filtrates were aliquoted, flash frozen on a methanol/dry ice bath and stored at −80° C. The protein concentration of each pooled batch was determined using the BCA protein assay. Thawed stocks of human SC tissue homogenates were diluted to 1.0 mg protein/mL in 25 mM HEPES buffer (pH 7.4) and aliquoted into a 96-well plate. The diluted SC homogenates were pre-warmed for 10 minutes at 37° C. […] Reactions were maintained at 37° C. in a shaking water bath. […] Quenched samples were centrifuged at 2178×g for 10 min and then a portion of the supernatants were transferred to a clean 96-well plate and diluted 1:10 with water. Samples were analyzed by UPLC-MS/MS.

[3] = target: T1, human Y5 receptor (Homo sapiens, UniProt Q15761); assay: NPY receptor functional assay (cAMP, HEK-CNG cells, ACTOne membrane potential dye); type: cell-based; details: NPY5R pEC50, HEK-CNG cells; standard NPY; species (human or rat) not given
T1 sequence (Q15761 1-445): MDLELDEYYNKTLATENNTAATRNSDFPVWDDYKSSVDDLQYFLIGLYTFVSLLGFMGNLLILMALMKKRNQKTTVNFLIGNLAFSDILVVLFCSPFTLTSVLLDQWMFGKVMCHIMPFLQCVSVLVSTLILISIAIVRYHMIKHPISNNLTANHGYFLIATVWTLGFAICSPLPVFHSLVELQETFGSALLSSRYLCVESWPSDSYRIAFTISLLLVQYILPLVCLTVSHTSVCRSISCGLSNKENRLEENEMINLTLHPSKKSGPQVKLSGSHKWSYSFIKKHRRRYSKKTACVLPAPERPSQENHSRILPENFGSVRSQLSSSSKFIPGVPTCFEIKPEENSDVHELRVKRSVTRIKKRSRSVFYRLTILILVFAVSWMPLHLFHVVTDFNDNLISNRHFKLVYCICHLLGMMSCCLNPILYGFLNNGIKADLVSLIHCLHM
Method in brief: (§1)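 HEK-CNG cells stably expressing each human receptor; peptides added in triplicate for 50 minutes at room temperature, with agonism read as decreased isoproterenol-induced membrane potential dye signal (final/initial read).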

[4] = target: T2, human Y2 receptor (Homo sapiens, UniProt P49146); assay: as above; type: cell-based; details: NPY2R pEC50, HEK-CNG cells; standard PYY(3-36); species (human or rat) not given
T2 sequence (P49146 1-381): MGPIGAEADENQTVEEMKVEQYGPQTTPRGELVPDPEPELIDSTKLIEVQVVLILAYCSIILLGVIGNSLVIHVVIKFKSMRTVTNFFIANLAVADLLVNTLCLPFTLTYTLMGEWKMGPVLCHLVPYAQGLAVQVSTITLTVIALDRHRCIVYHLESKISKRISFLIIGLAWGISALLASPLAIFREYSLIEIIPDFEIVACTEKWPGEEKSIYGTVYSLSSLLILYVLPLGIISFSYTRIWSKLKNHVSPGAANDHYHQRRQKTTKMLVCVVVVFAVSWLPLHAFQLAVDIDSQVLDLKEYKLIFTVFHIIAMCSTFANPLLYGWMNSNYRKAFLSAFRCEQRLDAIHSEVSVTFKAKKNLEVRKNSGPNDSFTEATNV
Method in brief: as §1

[5] = pH 7.4, human kBBM 50 mcg protein/mL, read-out: hkBBM t½ (converted)

Structure (SMILES)	half-life at 1 mcM [1, 5] [h]	half-life at 10 mcM [2] [h]	EC50 [3] [nM]	EC50 [4] [nM]	half-life at 1 mcM ([1]; pH 7.4, rat kBBM 50 mcg protein/mL, read-out: rkBBM t½) [h]
CC(C)C[C@H](NC(=O)[C@H](CC(=O)O)NC(=O)[C@H](CCCCNC(=O)CC[C@H](NC(=O)CC[C@H](NC(=O)CCCCCCCCCCCCCCCCCCC(=O)O)C(=O)O)C(=O)O)NC(=O)[C@H](Cc1ccc(O)cc1)NC(=O)[C@H](Cc1ccc(O)cc1)NC(=O)[C@H](CCCNC(=N)N)NC(=O)[C@H](CC(N)=O)NC(=O)[C@H](Cc1c[nH]c2ccccc12)NC(=O)[C@H](CCC(=O)O)NC(=O)[C@H](CCCCN)NC(=O)[C@@H]1CCCN1C(=O)[C@H](CO)NC(=O)[C@H](C)NC(=O)[C@H](CC(=O)O)NC(=O)[C@H](CCCCN)NC(=O)CNC(=O)[C@@H]1CCCN1C(=O)[C@H](CCCCN)NC(=O)[C@H](CCC(=O)O)NC(=O)[C@@H]1CCCN1C(=O)[C@H](CCCCN)NC(=O)[C@@H]1CCCN1)C(=O)N[C@@H](CCCNC(=N)N)C(=O)N[C@@H](Cc1c[nH]cn1)C(=O)N[C@@H](Cc1ccc(O)cc1)C(=O)N[C@@H](CC(C)C)C(=O)N[C@@H](CC(N)=O)C(=O)N[C@@H](Cc1c[nH]c2ccccc12)C(=O)N[C@@H](CC(C)C)C(=O)N[C@H](C(=O)N[C@@H](CCCNC(=N)N)C(=O)N[C@@H](CCC(N)=O)C(=O)N[C@@H](CCCNC(=N)N)C(=O)N[C@@H](Cc1ccccc1)C(N)=O)[C@@H](C)O [Compound A28] (H-PKPEKPGKDASPKEWNRYYK([γGlu-γGlu-C20 diacid])DLRHYLNWLTRQRF-NH2; N-terminus assumed)	5.2	0.2	1.58	0.0316	
CC(C)C[C@H](NC(=O)[C@H](CC(=O)O)NC(=O)[C@H](CCCCNC(=O)CC[C@H](NC(=O)CC[C@H](NC(=O)CCCCCCCCCCCCCCCCCCC(=O)O)C(=O)O)C(=O)O)NC(=O)[C@H](Cc1ccc(O)cc1)NC(=O)[C@H](Cc1ccc(O)cc1)NC(=O)[C@H](CCCNC(=N)N)NC(=O)[C@H](CC(=O)O)NC(=O)[C@H](Cc1c[nH]c2ccccc12)NC(=O)[C@H](CCC(=O)O)NC(=O)[C@H](CCCCN)NC(=O)[C@@H]1CCCN1C(=O)[C@H](CO)NC(=O)[C@H](C)NC(=O)[C@H](CC(=O)O)NC(=O)[C@H](CCC(=O)O)NC(=O)CNC(=O)[C@@H]1CCCN1C(=O)[C@H](CCCCN)NC(=O)[C@H](CCC(=O)O)NC(=O)[C@@H]1CCCN1C(=O)[C@H](CCCCN)NC(=O)[C@@H]1CCCN1)C(=O)N[C@@H](CCCNC(=N)N)C(=O)N[C@@H](Cc1c[nH]cn1)C(=O)N[C@@H](Cc1ccc(O)cc1)C(=O)N[C@@H](CC(C)C)C(=O)N[C@@H](CC(N)=O)C(=O)N[C@@H](Cc1c[nH]c2ccccc12)C(=O)N[C@@H](CC(C)C)C(=O)N[C@H](C(=O)N[C@@H](CCCNC(=N)N)C(=O)N[C@@H](CCC(N)=O)C(=O)N[C@@H](CCCNC(=N)N)C(=O)N[C@@H](Cc1ccccc1)C(N)=O)[C@@H](C)O [Compound A34]	6.7	4.9	1.58	0.0631	
CC(C)C[C@H](NC(=O)[C@H](CC(=O)O)NC(=O)[C@H](CCCCNC(=O)CC[C@H](NC(=O)COCCOCCNC(=O)COCCOCCNC(=O)CC[C@H](NC(=O)CCCCCCCCCCCCCCCCCCC(=O)O)C(=O)O)C(=O)O)NC(=O)[C@H](Cc1ccc(O)cc1)NC(=O)[C@H](Cc1ccc(O)cc1)NC(=O)[C@H](CCCNC(=N)N)NC(=O)[C@H](CC(N)=O)NC(=O)[C@H](Cc1c[nH]c2ccccc12)NC(=O)[C@H](CCC(=O)O)NC(=O)[C@H](CCC(=O)O)NC(=O)[C@@H]1CCCN1C(=O)[C@H](CO)NC(=O)[C@H](C)NC(=O)[C@H](CC(=O)O)NC(=O)[C@H](CCCCN)NC(=O)CNC(=O)[C@@H]1CCCN1C(=O)[C@H](C)NC(=O)[C@H](CCC(=O)O)NC(=O)[C@@H]1CCCN1C(=O)[C@H](CCCCN)NC(=O)[C@@H]1CCCN1)C(=O)N[C@@H](CCCNC(=N)N)C(=O)N[C@@H](Cc1c[nH]cn1)C(=O)N[C@@H](Cc1ccc(O)cc1)C(=O)N[C@@H](CC(C)C)C(=O)N[C@@H](CC(N)=O)C(=O)N[C@@H](Cc1c[nH]c2ccccc12)C(=O)N[C@@H](CC(C)C)C(=O)N[C@H](C(=O)N[C@@H](CCCNC(=N)N)C(=O)N[C@@H](CCC(N)=O)C(=O)N[C@@H](CCCNC(=N)N)C(=O)N[C@@H](Cc1ccccc1)C(N)=O)[C@@H](C)O [Compound A16]	> 12	7.3	0.794	0.0631	> 12
CC(C)C[C@H](NC(=O)[C@H](CC(=O)O)NC(=O)[C@H](CCCCN)NC(=O)[C@H](Cc1ccc(O)cc1)NC(=O)[C@H](Cc1ccc(O)cc1)NC(=O)[C@H](CCCNC(=N)N)NC(=O)[C@H](CC(N)=O)NC(=O)[C@H](Cc1c[nH]c2ccccc12)NC(=O)[C@H](CCC(=O)O)NC(=O)[C@H](CCCCN)NC(=O)[C@@H]1CCCN1C(=O)[C@H](CO)NC(=O)[C@H](C)NC(=O)[C@H](CC(=O)O)NC(=O)[C@H](CCCCNC(=O)CC[C@H](NC(=O)CC[C@H](NC(=O)CCCCCCCCCCCCCCCCCCC(=O)O)C(=O)O)C(=O)O)NC(=O)CNC(=O)[C@@H]1CCCN1C(=O)[C@H](CCCCN)NC(=O)[C@H](CCC(=O)O)NC(=O)[C@@H]1CCCN1C(=O)[C@H](CCCCN)NC(=O)[C@@H]1CCCN1)C(=O)N[C@@H](CCCNC(=N)N)C(=O)N[C@@H](Cc1c[nH]cn1)C(=O)N[C@@H](Cc1ccc(O)cc1)C(=O)N[C@@H](CC(C)C)C(=O)N[C@@H](CC(N)=O)C(=O)N[C@@H](Cc1c[nH]c2ccccc12)C(=O)N[C@@H](CC(C)C)C(=O)N[C@H](C(=O)N[C@@H](CCCNC(=N)N)C(=O)N[C@@H](CCC(N)=O)C(=O)N[C@@H](CCCNC(=N)N)C(=O)N[C@@H](Cc1ccccc1)C(N)=O)[C@@H](C)O [Compound A27] (H-PKPEKPGK([γGlu-γGlu-C20 diacid])DASPKEWNRYYKDLRHYLNWLTRQRF-NH2; N-terminus assumed)	10	0.2	1.26	0.02	
CC(C)C[C@H](NC(=O)[C@H](CC(=O)O)NC(=O)[C@H](CCCCNC(=O)CC[C@H](NC(=O)CC[C@H](NC(=O)CCCCCCCCCCCCCCCCCCC(=O)O)C(=O)O)C(=O)O)NC(=O)[C@H](Cc1ccc(O)cc1)NC(=O)[C@H](Cc1ccc(O)cc1)NC(=O)[C@H](CCCNC(=N)N)NC(=O)[C@H](CC(N)=O)NC(=O)[C@H](Cc1c[nH]c2ccccc12)NC(=O)[C@H](CCC(=O)O)NC(=O)[C@H](CCCCN)NC(=O)[C@@H]1CCCN1C(=O)[C@H](CO)NC(=O)[C@H](C)NC(=O)[C@H](CC(=O)O)NC(=O)[C@H](CCC(=O)O)NC(=O)CNC(=O)[C@@H]1CCCN1C(=O)[C@H](CCCCN)NC(=O)[C@H](CCC(=O)O)NC(=O)[C@@H]1CCCN1C(=O)[C@H](CCCCN)NC(=O)[C@@H]1CCCN1)C(=O)N[C@@H](CCCNC(=N)N)C(=O)N[C@@H](Cc1c[nH]cn1)C(=O)N[C@@H](Cc1ccc(O)cc1)C(=O)N[C@@H](CC(C)C)C(=O)N[C@@H](CC(N)=O)C(=O)N[C@@H](Cc1c[nH]c2ccccc12)C(=O)N[C@@H](CC(C)C)C(=O)N[C@H](C(=O)N[C@@H](CCCNC(=N)N)C(=O)N[C@@H](CCC(N)=O)C(=O)N[C@@H](CCCNC(=N)N)C(=O)N[C@@H](Cc1ccccc1)C(N)=O)[C@@H](C)O [Compound A29]	8.7	1.1	1	0.0126	
